What was measured:
Format in all cases: cell-based
Toll-like receptor 4 = Toll-like receptor 4 (Homo sapiens, UniProt O00206); experiment: Activation of TLR4 signaling (unknown origin) expressed in HEK-Blue cells after 30 mins by secreted embryonic alkaline phosphatase reporter gene assay; settings: 0.5 h
[1] = Cytotoxicity against HEK-Blue cells assessed as reduction in cell viability up to 10 uM measured after overnight incubation by MTT assay; settings: human
[2] = molecular target: Toll-like receptor 4/MD-2/CD14 (Homo sapiens, UniProt O00206+P08571+Q9Y6Y9); experiment: (§1) Binding affinity to CD14/MD2 (unknown origin) expressed in HEK-Blue cells co-expressing TLR4 assessed as inhibition of LPS-induced TLR4 signaling preincubated for 30 mins followed by LPS stimulation measured after overnight incubation by secreted embryonic alkaline phosphatase reporter gene assay
Chain of Toll-like receptor 4/MD-2/CD14 (O00206 whole entry): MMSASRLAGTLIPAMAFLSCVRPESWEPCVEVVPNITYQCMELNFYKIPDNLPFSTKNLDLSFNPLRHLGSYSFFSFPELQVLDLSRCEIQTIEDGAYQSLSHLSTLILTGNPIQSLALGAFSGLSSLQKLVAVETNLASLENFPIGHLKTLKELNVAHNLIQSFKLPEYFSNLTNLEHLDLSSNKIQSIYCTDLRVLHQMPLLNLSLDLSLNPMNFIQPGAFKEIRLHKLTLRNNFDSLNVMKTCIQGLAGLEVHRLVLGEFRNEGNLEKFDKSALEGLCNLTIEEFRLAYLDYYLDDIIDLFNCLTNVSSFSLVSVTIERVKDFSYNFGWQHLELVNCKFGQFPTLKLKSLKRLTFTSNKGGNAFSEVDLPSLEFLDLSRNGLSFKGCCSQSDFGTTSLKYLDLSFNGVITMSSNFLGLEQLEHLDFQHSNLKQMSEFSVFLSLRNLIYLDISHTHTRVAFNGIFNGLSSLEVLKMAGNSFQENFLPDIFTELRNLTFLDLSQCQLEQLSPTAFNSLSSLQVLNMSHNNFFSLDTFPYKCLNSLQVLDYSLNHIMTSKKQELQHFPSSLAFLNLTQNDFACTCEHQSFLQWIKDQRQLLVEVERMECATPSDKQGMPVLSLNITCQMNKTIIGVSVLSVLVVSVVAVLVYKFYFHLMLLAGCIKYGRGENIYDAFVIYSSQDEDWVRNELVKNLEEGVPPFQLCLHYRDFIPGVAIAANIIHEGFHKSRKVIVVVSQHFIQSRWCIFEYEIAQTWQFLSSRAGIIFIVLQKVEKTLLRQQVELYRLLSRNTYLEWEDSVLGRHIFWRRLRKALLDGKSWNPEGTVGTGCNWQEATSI
Chain of Toll-like receptor 4/MD-2/CD14 (Q9Y6Y9 whole entry): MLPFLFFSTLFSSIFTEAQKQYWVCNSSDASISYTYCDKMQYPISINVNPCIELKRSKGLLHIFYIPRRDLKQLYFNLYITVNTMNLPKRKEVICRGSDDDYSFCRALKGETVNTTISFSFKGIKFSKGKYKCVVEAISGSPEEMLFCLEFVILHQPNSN
Chain of Toll-like receptor 4/MD-2/CD14 (P08571 whole entry): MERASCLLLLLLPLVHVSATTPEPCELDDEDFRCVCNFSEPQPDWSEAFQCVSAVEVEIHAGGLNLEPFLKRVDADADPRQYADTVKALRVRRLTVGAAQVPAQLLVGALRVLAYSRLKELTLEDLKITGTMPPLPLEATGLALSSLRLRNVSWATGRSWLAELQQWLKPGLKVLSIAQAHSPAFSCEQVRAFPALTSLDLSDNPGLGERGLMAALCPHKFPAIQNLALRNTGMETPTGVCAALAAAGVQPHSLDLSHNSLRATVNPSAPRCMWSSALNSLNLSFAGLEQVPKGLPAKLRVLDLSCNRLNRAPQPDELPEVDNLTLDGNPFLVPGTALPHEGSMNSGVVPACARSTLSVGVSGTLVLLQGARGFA

[3] = molecular target: Toll-like receptor 4/MD-2/CD14 (Homo sapiens) (UniProt O00206+Q9Y6Y9+P08571); experiment: as §1

Chain of Toll-like receptor 4 (O00206 whole entry): as the sequence (O00206 whole entry) above

Row | Activity (Toll-like receptor 4) | IC50 [2] [µM] | inhibition [3] | SMILES | Activity [1]
1 | Not Active | – | – | CCCOc1c2cc(NC(=N)N)cc1Cc1cc(NC(=N)N)cc(c1OCCC)Cc1cc(NC(=N)N)cc(c1OCCC)Cc1cc(NC(=N)N)cc(c1OCCC)C2.Cl.Cl.Cl.Cl | Non-Toxic
2 | Not Active | 0.2 | Dose-dependent effect | CC(C)(C)c1cc2c(OCCCCNC(=N)N)c(c1)Cc1cc(C(C)(C)C)cc(c1OCCCCNC(=N)N)Cc1cc(C(C)(C)C)cc(c1OCCCCNC(=N)N)Cc1cc(C(C)(C)C)cc(c1OCCCCNC(=N)N)C2.Cl.Cl.Cl.Cl | –
3 | Not Active | – | – | CCCCCCOc1c2cc(NC(=N)N)cc1Cc1cc(NC(=N)N)cc(c1OCCCCCC)Cc1cc(NC(=N)N)cc(c1OCCCCCC)Cc1cc(NC(=N)N)cc(c1OCCCCCC)C2.Cl.Cl.Cl.Cl | Non-Toxic
4 | Not Active | 10 | Dose-dependent effect | CC(C)(C)c1cc2c(OCCCNC(=N)N)c(c1)Cc1cc(C(C)(C)C)cc(c1OCCCNC(=N)N)Cc1cc(C(C)(C)C)cc(c1OCCCNC(=N)N)Cc1cc(C(C)(C)C)cc(c1OCCCNC(=N)N)C2.Cl.Cl.Cl.Cl | –

Reference: ChEMBL document CHEMBL4014316, “Amphiphilic Guanidinocalixarenes Inhibit Lipopolysaccharide (LPS)- and Lectin-Stimulated Toll-like Receptor 4 (TLR4) Signaling” (J Med Chem, 2017)
